From US20030040490A1, “Drugs containing combined active ingredients” (priority 2000, published 2003)

Key:
[1] = test system: Sprague-Dawley rats (SD rats); assay: oral sucrose loading test, voglibose and nateglinide (Example 2); type: in vivo, rat; settings: 2.5 g/kg sucrose load, 0-120 min, average ± standard deviation
Method: An effect of the combined use of the α-glucosidase inhibitor (voglibose) and non-sulfonylurea insulin secretagogue (nateglinide) was examined in an oral sucrose loading test using Sprague-Dawley rats (SD rats). SD rats (7-week-old, male) were divided into 6 groups (6 rats per group) to give 1) a control group (distilled water administration), 2) a voglibose 0.1 mg/kg administration group, 3) a nateglinide 10 or 30 mg/kg administration group, and 4) a voglibose 0.1 mg/kg and nateglinide 10 or 30 mg/kg combined administration group. After fasting overnight, every rat was given the above-mentioned drugs by single or combined oral administration, and successively given 2.5 g/kg sucrose solution by oral administration. […] The plasma glucose level was measured by an enzymatic method using an L type Wako Glu2 (Wako Pure Chemical Industries, Ltd.). Increase in the plasma glucose area was calculated by a trapezoid method (Odaka et al., J. Nutr. Sci. Vitaminol., vol. 38, p. 37 (1992) using the plasma glucose level at each time point. The results are shown in Table 1.

[2] = test system: Sprague-Dawley rats (SD rats); assay: oral sucrose loading test, voglibose and repaglinide (Example 3); type: in vivo, rat; settings: repaglinide 0.05 mg/kg oral, 2.5 g/kg sucrose load, 0-60 min, average ± standard deviation
Method: An effect of the combined use of the α-glucosidase inhibitor (voglibose) and the non-sulfonylurea insulin secretagogue (repaglinide) was examined in an oral sucrose loading test using Sprague-Dawley rats (SD rats).
SD rats (10-week-old, male) were divided into 4 groups (6 rats per group) to give 1) a control group (distilled water administration), 2) a repaglinide 0.05 mg/kg administration group, and 3) a voglibose 0.1 mg/kg and repaglinide 0.05 mg/kg combined administration group. After fasting overnight, every rat was given the above-mentioned drugs by single or combined oral administration, and successively given 2.5 g/kg of a sucrose solution by oral administration. The blood was drawn from the rat tail vein before administration of the sucrose solution and 15, 30 and 60 min after the administration, and the plasma glucose level was measured. The plasma glucose level was measured by an enzymatic method using an L type Wako Glu2 (Wako Pure Chemical Industries, Ltd.), and the plasma insulin level was measured by radio immunoassay using Insulotech-Mochida (Mochida Pharmaceutical Co., Ltd.).
Increase in the plasma glucose and plasma insulin areas was calculated by a trapezoid method (Odaka et al., J. Nutr. Sci. Vitaminol., vol. 38, p. 37 (1992)) using the plasma glucose and plasma insulin levels at each time point.

Structure (SMILES): CC(C)[C@H]1CC[C@H](C(=O)N[C@H](Cc2ccccc2)C(=O)O)CC1 [nateglinide]
- Increase in plasma glucose area ([1]; nateglinide 10 mg/kg oral): 65 ± 28 mg·h/dL
- Increase in plasma glucose area ([1]; nateglinide 30 mg/kg oral): 54 ± 15 mg·h/dL

Structure (SMILES): CCOc1cc(CC(=O)N[C@@H](CC(C)C)c2ccccc2N2CCCCC2)ccc1C(=O)O [repaglinide]
- Increase in plasma glucose area [2]: 6 ± 13 mg·h/dL
- Increase in plasma insulin area [2]: 432 ± 117 μU · h/ml

Structure (SMILES): OCC(CO)N[C@H]1C[C@](O)(CO)[C@@H](O)[C@H](O)[C@H]1O [voglibose]
- Increase in plasma glucose area ([1]; voglibose 0.1 mg/kg oral): 30 ± 10 mg·h/dL
